# Reference: ChEMBL document CHEMBL3875211, “Design and synthesis of new coumarin hybrids and insight into their mode of antiproliferative action” (Bioorg Med Chem, 2017)
# Active and inactive are the calls of the source. The calls are words filed in the database; no cut-off is given here.
# Legend:
# K562 [1] = assay: Induction of apoptosis in human K562 cells assessed as increase in caspase-9 protein expression at 0.93 uM after 24 hrs by ELISA; type: functional, cell-based
# K562 [2] = assay: Induction of apoptosis in human K562 cells assessed as decrease in Bcl2 mRNA expression at antiproliferative IC50 by RT-PCR method; type: functional, cell-based
# [3] = Antiproliferative activity against human HepG2 cells after 48 hrs by MTT assay; type: functional, cell-based; conditions: HepG2, 48 h
# [4] = Cytotoxicity against human WI38 cells assessed as reduction in cell viability after 48 hrs by MTT assay; type: toxicity, cell-based, WI-38
# K562 [5] = assay: Induction of apoptosis in human K562 cells assessed as increase in caspase-3 protein expression at 0.93 uM after 24 hrs by ELISA; type: functional, cell-based
# [6] = Antiproliferative activity against human K562 cells after 48 hrs by MTT assay; type: functional, cell-based; conditions: K562, 48 h
# K562 [7] = assay: Induction of apoptosis in human K562 cells assessed as increase in Bax mRNA expression at antiproliferative IC50 by RT-PCR method; type: functional, cell-based
# HepG2 [8] = assay: Induction of apoptosis in human HepG2 cells assessed as decrease in Bcl2 mRNA expression at antiproliferative IC50 by RT-PCR method; type: functional, cell-based
# HepG2 [9] = assay: Induction of apoptosis in human HepG2 cells assessed as increase in caspase-9 protein expression at 0.77 uM after 24 hrs by ELISA; type: functional, cell-based
# HepG2 [10] = assay: Induction of apoptosis in human HepG2 cells assessed as increase in Bax mRNA expression at antiproliferative IC50 by RT-PCR method; type: functional, cell-based
# HepG2 [11] = assay: Induction of apoptosis in human HepG2 cells assessed as increase in caspase-3 protein expression at 0.77 uM after 24 hrs by ELISA; type: functional, cell-based
# K562 [12] = assay: Induction of apoptosis in human K562 cells at 0.49 uM after 24 hrs by propidium iodide staining based flow cytometry (reference value: 0.8%); type: functional
# K562 [13] = assay: Induction of apoptosis in human K562 cells assessed as increase in caspase-9 protein expression at 0.49 uM after 24 hrs by ELISA; type: functional, cell-based
# [14] = Cell cycle arrest in human K562 cells assessed as accumulation at S phase at 0.49 uM after 24 hrs by propidium iodide staining based flow cytometry (reference value: 21.7%); type: functional
# [15] = Cell cycle arrest in human K562 cells assessed as accumulation at G1 phase at 0.49 uM after 24 hrs by propidium iodide staining based flow cytometry (reference value: 68.2%); type: functional
# K562 [16] = assay: Induction of apoptosis in human K562 cells assessed as increase in caspase-3 protein expression at 0.49 uM after 24 hrs by ELISA; type: functional, cell-based
# [17] = Cell cycle arrest in human K562 cells assessed as accumulation at G2 phase at 0.49 uM after 24 hrs by propidium iodide staining based flow cytometry (reference value: 9.3%); type: functional
# K562 [18] = assay: Induction of apoptosis in human K562 cells assessed as increase in caspase-3 protein expression at 1.24 uM after 24 hrs by ELISA; type: functional, cell-based
# K562 [19] = assay: Induction of apoptosis in human K562 cells assessed as increase in caspase-9 protein expression at 1.24 uM after 24 hrs by ELISA; type: functional, cell-based
# K562 [20] = assay: Induction of apoptosis in human K562 cells assessed as increase in caspase-9 protein expression at 1.21 uM after 24 hrs by ELISA; type: functional, cell-based
# K562 [21] = assay: Induction of apoptosis in human K562 cells assessed as increase in caspase-3 protein expression at 1.21 uM after 24 hrs by ELISA; type: functional, cell-based
# HepG2 [22] = assay: Induction of apoptosis in human HepG2 cells at 0.65 uM after 24 hrs by propidium iodide staining based flow cytometry (reference value: 1.2%); type: functional
# HepG2 [23] = assay: Induction of apoptosis in human HepG2 cells assessed as increase in caspase-3 protein expression at 0.65 uM after 24 hrs by ELISA; type: functional, cell-based
# [24] = Cell cycle arrest in human HepG2 cells assessed as accumulation at G2 phase at 0.65 uM after 24 hrs by propidium iodide staining based flow cytometry (reference value: 7.2%); type: functional
# HepG2 [25] = assay: Induction of apoptosis in human HepG2 cells assessed as increase in caspase-9 protein expression at 0.65 uM after 24 hrs by ELISA; type: functional, cell-based
# [26] = Cell cycle arrest in human HepG2 cells assessed as accumulation at S phase at 0.65 uM after 24 hrs by propidium iodide staining based flow cytometry (reference value: 25.2%); type: functional
# [27] = Cell cycle arrest in human HepG2 cells assessed as accumulation at G1 phase at 0.65 uM after 24 hrs by propidium iodide staining based flow cytometry (reference value: 66.4%); type: functional
Compound,IC50 [3] [µM],IC50 at 48 h [4] [µM],IC50 [6] [µM],further results
COc1ccc(/C=C/C(=O)c2cc3cccc(OC)c3oc2=O)cc1OC,0.82,33.1,0.93,Activity (K562 [1]): Active; Activity (K562 [2]): Active; Activity (K562 [5]): Active; Activity (K562 [7]): Active
COc1ccc(/C=C(\C#N)C(=O)N/N=C(\C)c2cc3cccc(OC)c3oc2=O)cc1,0.77,48.4,3.96,Activity (HepG2 [8]): Active; Activity (HepG2 [9]): Active; Activity (HepG2 [10]): Active; Activity (HepG2 [11]): Active
COc1cc(/C=C(\C#N)C(=O)N/N=C(\C)c2cc3cccc(OC)c3oc2=O)cc(OC)c1OC,1.57,11.1,0.49,Activity (K562 [12]): 9.7%; Activity (K562 [13]): Active; Activity (K562 [2]): Active; Activity [14]: 30.2%; Activity [15]: 44.6%; Activity (K562 [16]): Active; Activity (K562 [7]): Active; Activity [17]: 15.5%
COc1cc(/C=C/C(=O)c2cc3cccc(OC)c3oc2=O)cc(OC)c1OC,2.02,9.55,1.36,–
COc1cccc2cc(-c3ccc(C(C)=O)c(C)n3)c(=O)oc12,9.1,354,1.24,Activity (K562 [18]): Active; Activity (K562 [19]): Active
COc1ccc(-c2cc(-c3cc4cccc(OC)c4oc3=O)nc(C#N)c2N)cc1OC,3.2,36.1,1.61,–
COc1ccc(C[C@@H](O)c2cc(OC)c(OC)c(OC)c2)cc1O [COMBRETASTATIN],3.4,–,3.46,–
CCOC(=O)c1ccc(-c2cc3cccc(OC)c3oc2=O)nc1C,4.92,67.7,8.82,–
COc1cccc2c1C(=O)c1c(O)c3c(c(O)c1C2=O)C[C@@](O)(C(=O)CO)C[C@@H]3O[C@H]1C[C@H](N)[C@H](O)[C@H](C)O1 [DOXORUBICIN],4.93,–,2.96,–
COc1ccc(-c2cc(-c3cc4cccc(OC)c4oc3=O)nc(C#N)c2N)cc1,1.25,8.66,1.21,Activity (K562 [20]): Active; Activity (K562 [21]): Active
COc1ccc(/C=C/C(=O)c2cc3cccc(OC)c3oc2=O)cc1,0.65,293,1.09,Activity (HepG2 [22]): 16.3%; Activity (HepG2 [8]): Active; Activity (HepG2 [23]): Active; Activity [24]: 19.1%; Activity (HepG2 [25]): Active; Activity [26]: 28.8%; Activity [27]: 35.8%; Activity (HepG2 [10]): Active
COc1ccc(/C=C(\C#N)C(=O)N/N=C(\C)c2cc3cccc(OC)c3oc2=O)cc1OC,0.93,3.3,8.71,–
